Experimental data as given in patent publication US11160785B2, “Methods and compositions for improving cognitive function” (AgeneBio, Inc., priority 2013, dated 2021).

Columns and labels:
[1] = system: reelin in Entorhinal Cortex (EC2); assay: Reelin mRNA in situ hybridization in entorhinal cortex of aged-impaired rats; format: in vivo, rat; details: 10 mg/kg/day for 28 days, compared to AI-VEH, p=0.033
Procedure: In situ hybridization was carried out as described by Haberman et al., (2008). Free-floating tissue sections were washed in 0.75% glycine in 0.1M phosphate buffer two times, followed by a single wash in phosphate buffer. After that, sections were reacted in Proteinase K buffer containing 1.0 μg/ml proteinase K for 30 minutes at 37° C. Sections were then treated with acetic anhydride solution (11.3% triethanolamine, 0.25% acetic anhydride, 0.04 M acetic acid) for 10 minutes at room temperature. This was followed by two 15-minute washes in 2× sodium chloride/citrate buffer (SSC buffer; 20× concentration, 3M NaCl, 0.3M sodium citrate). Next, sections were transferred to hybridization buffer containing 20% formamide, 0.4×Denhardt's solution, 4% dextran sulfate, and 1.6×SSC) supplemented with 0.25 mg/ml tRNA, 0.33 mg/ml sheared salmon sperm DNA, 100 mM DTT, and 1×10^7 cpm/ml 35S-UTP-labeled probe for overnight reaction at 60° C. The following day, sections were washed at 60° C. in 4×SSC/0.01M DTT and 2×SSC/50% formamide. They were then incubated with RNase (20 μg/ml) at 37° C. for 30 min. […] Slides were dried overnight, exposed to a phosphoimager screen, and quantified by using ImageQuant (GE Healthcare). Digital images were acquired of entorhinal cortical sections from the same levels for all animals and the subregion of interest was outlined and quantified. […]

[2] = system: aMCI subjects; assay: explicit 3-alternative forced choice task (lure images); format: in vivo, human
Text: See Folstein et al., J Psychiatric Res 12: 189-98, (1975); Robbins et al., Dementia 5: 266-81, (1994); Rey, L'examen clinique en psychologie, (1964); Kluger et al., J Geriatr Psychiatry Neurol 12:168-79, (1999); Marquis et al., 2002 and Masur et al., 1994, or MATRICS consensus neuropsychological test battery which includes tests of working memory, speed of processing, attention, verbal learning, visual learning, reasoning and problem solving and social cognition. Another example of a cognitive test in humans is the explicit 3-alternative forced choice task. In this test, subjects are presented with color photographs of common objects consisting of a mix of three types of image pairs: similar pairs, identical pairs and unrelated foils. The second of the pair of similar objects is referred to as the “lure”. These image pairs are fully randomized and present individually as a series of images. Subjects are instructed to make a judgment as to whether the objects seen are new, old or similar. A “similar” response to the presentation of a lure stimulus indicates successful memory retrieval by the subject.
The activity of the subject's medial temporal lobe is measured by functional MRI during the subject's participation in an explicit 3-alternative forced choice task, where participants view novel, repeated and similar (“lure”) stimuli. The Psychophysics Toolbox extensions in Matlab 7.0 (The MathWorks, Natick, Mass.) is used for stimulus presentation and behavioral data collection. Stimuli are color photographs of common objects. Each participant undergoes a series of testing runs during the functional imaging sessions, each run consisting of a mix of three types of image pairs: similar pairs, identical pairs and unrelated foils. These image pairs are fully randomized throughout the run and present individually as a series of images (see FIG. 6A). […]
The activity of the subject's medial temporal lobe is measured by functional MRI during the subject's participation in an explicit 3-alternative forced choice task, where participants view novel, repeated and similar (“lure”) stimuli. […]

[3] = cited from earlier work

CC[C@@H](C(N)=O)N1CCCC1=O [levetiracetam, (2S)-2-(2-oxopyrrolidin-1-yl) butanamide]
reelin mRNA expression in the lateral entorhinal cortex (EC2) [1]: significantly increased the expression of reelin
performance of aMCI subjects in the memory task (similar vs old responses to lures) ([2]; levetiracetam 62.5 mg BID for two weeks vs placebo, p=0.041): improves significantly
performance of aMCI subjects in the memory task (similar vs old responses to lures) ([2]; levetiracetam 125 mg twice a day for two weeks vs placebo, p=0.039): improves significantly
performance of aMCI subjects in the memory task (similar vs old responses to lures) ([2]; levetiracetam 250 mg BID for two weeks vs placebo, p=0.2396): does not significantly improve
plasma half-life expected in elderly ([3]; elderly, decreased renal function): 9 to 10 h
absorption ([3]; in vivo, po): rapidly and almost completely absorbed
time of peak plasma concentrations ([3]; in vivo, po): about 1 hour
plasma half-life ([3]; in vivo): approximately 7±1 hour
time to steady state ([3]; in vivo): 2 days
effect of food on bioavailability ([3]; oral): not affected by food
